Experiments:
Assay type in all cases: cell-based
[1] = test system: methicillin resistant S. aureus (MRSA); test: Raman marker peak height versus time in serum with MRSA (FIG. 6); conditions: representative traces 32 and 34, FIG. 6
Excerpt: As described above, if the iron sequestration process is monitored via Raman spectroscopy, then the test involves the collection of a series of Raman spectra over time. A hypothetical depiction of this collection for a non-iron marker is depicted in FIG. 5. The individual Raman spectra comprise one or more peaks such as […], and 23 that, in the case of iron sequestration, are ascribed either to Fe-Tr (21 and 22) or to the apo-Tr and/or serum lipoproteins (23). The peak heights from one of the Fe-Tr peaks (for instance, 22) are monitored over time, as depicted in FIG. 5. If viable pathogens are present, and are sequestering iron to afford Fe-Tr, then the iron-transferrin peaks decrease over time, as depicted by traces 33 and 34 in FIG. 6. On the other hand, if viable pathogens are not present, or if viable pathogens are present in the assay together with an effective antimicrobial agent, then the peak heights are nearly invariant with time.
With reference to FIGS. 5 and 6, if the lycopene consumption is monitored via Raman spectroscopy as an indicator of metabolic activity, then the test involves the collection of a series of Raman spectra over time. A representative depiction of this collection is depicted in FIG. 5. […]

[2] = test system: HL60 human cells; test: Toxin detection: lycopene Raman peak in human serum, trypticase soy broth and HL60 cells; conditions: 4 μM, FIG. 24, 25
Excerpt: FIG. 24 depicts the results of one toxin detection experiment. A control sample comprising human serum (centrifuged from the blood collected from a healthy volunteer) was combined with trypticase soy broth and HL60 human cells. […] FIG. 25 plots the normalized intensity for the 1516 cm^−1 peak as a function of time for the rhizoxin containing sample.

[3] = test system: S. aureus; test: Lycopene Raman peak (1516 cm^-1) slope versus time in inoculated serum, MIC estimate; conditions: S. aureus 10^5 cfu/mL; vancomycin 1, 5 and 20 μg/mL; FIG. 17
Description: FIGS. 17 & 18 illustrate the method by which a marker can be used to estimate the minimum inhibitory concentration MIC. FIG. 17 illustrates the Raman peak height at 1516 cm^−1 (which has been ascribed to lycopene) as a function of time for several samples. The samples include a serum sample that has been artificially inoculated with S. aureus to a concentration of 10^5 cfu/mL, and additional samples that also contain various concentrations of vancomycin (1, 5 and 20 μg/mL) as indicated in the legend.
FIG. 18 plots the slope of all the traces in FIG. 17, as a function of added vancomycin concentration. The dashed horizontal line corresponds to the slope of the sample without any added vancomycin, and the 3 data points correspond to vancomycin concentrations of 1, 5 and 20 μg/mL. The solid black line is a logarithmic fit of the 3 data points, and the MIC corresponds to the point at which the solid black line intersects the dashed line.

SMILES | effectiveness of dose by peak height versus time trace [1] | lycopene peak height (1516 cm^-1) over time [2] | slope of lycopene 1516 cm^-1 peak intensity versus time [3]
CC1(C)S[C@@H]2[C@H](NC(=O)[C@H](N)c3ccccc3)C(=O)N2[C@H]1C(=O)O [ampicillin] | ineffective dose | – | –
CO[C@@H](/C(C)=C/C=C/C(C)=C/c1coc(C)n1)[C@@H](C)[C@@H]1C[C@H](O)[C@@]2(C)O[C@@H]2/C=C/[C@@H](C)[C@H]2C[C@H](CC(=O)O2)C[C@@H]2O[C@H]2C(=O)O1 [rhizoxin] | – | increases significantly at first, followed by a steady decline | –
CN[C@H](CC(C)C)C(=O)N[C@H]1C(=O)N[C@@H](CC(N)=O)C(=O)N[C@H]2C(=O)N[C@H]3C(=O)N[C@H](C(=O)N[C@H](C(=O)O)c4cc(O)cc(O)c4-c4cc3ccc4O)[C@H](O)c3ccc(c(Cl)c3)Oc3cc2cc(c3O[C@@H]2O[C@H](CO)[C@@H](O)[C@H](O)[C@H]2O[C@H]2C[C@](C)(N)[C@H](O)[C@H](C)O2)Oc2ccc(cc2Cl)[C@H]1O [vancomycin] | effective dose | – | slope progressively decreases as more vancomycin is added

From patent US20130052636A1, “RAPID DETECTION OF METABOLIC ACTIVITY” (SPECTRAL PLATFORMS, INC., priority 2011, published 2013)
